Our source for the Preventive value and pest or weed control values is patent US20110281807A1, “PLANT DISEASE CONTROL AGENT COMPRISING D-TAGATOSE AS ACTIVE INGREDIENT, AND PLANT DISEASE CONTROL METHOD” (NATIONAL UNIVERSITY CORPORATION KAGAWA UNIVERSITY, priority 2008, published 2011).

Molecules are shown by their SMILES. Where two headings read alike, the source gives them in different places.

The test system of experiment [1] is Erysiphe graminis f.sp. hordei.
Experiment [2] concerns Pseudoperonospora cubensis.
Method: Test plants (cucumber, variety: Sagami hanpaku) were seeded and grown until the one true leaf stage. D-Tagatose was diluted to 5000 ppm and the fungicides were diluted to the concentrations listed in table 14, with distilled water. And then 10 ml of the dilution was sprayed on the test plant. Three days after spraying of the solution, a sporangium suspension of Pseudoperonospora cubensis containing 1×10^3/ml were inoculated by spraying on test plants and then put for 16 hours in an inoculation chamber (20° C. to 23° C.) to promote disease. Seven days after inoculation the disease severity of the test plants was observed and the effectiveness of the test sample was judged. Tests were carried out using two plants for each test set and the disease severity of the test plants was judged in accordance with the following criteria. The preventive value was calculated from the degree of disease severity.
0 (No lesion) 1 (Lesion area was not more than 40%) 2 ((Lesion area was 40%-80%) 3 (Lesion area was not less than 80%)
Preventive value=100{1−(n/N)} N=disease severity of untreated leaf, n=disease severity of the test leaf Synergistic effect was determined by Colby's equation.
The next experiment deals with Pyricularia oryze. Nature of the experiment: whole plant or invertebrate. To be noted: for pest or weed control at 250 ppm / pest or weed control at 50 ppm: Pyricularia, in Oryza sativa, 168 h, read-out: Preventive value. It is filed as in vivo.
The next experiment relates to Phytophthora infestans. As to the kind of experiment: whole plant or invertebrate. It is filed as in vivo.
Experiment [3] deals with Pseudoperonospora cubensis. The source holds these as a separate data set.
Method: Test plants (cucumber, variety: Sagami hanpaku) were seeded and grown until the one true leaf stage. And then, a sporangium suspension of Pseudoperonospora cubensis containing 1×10^3/ml were spraying for inoculation on the back side of the leaves of test plants and then put for 16 hours in an inoculation chamber (20° C. to 23° C.) to promote disease. For a curative test, the inoculated plants as described above were used.
D-Tagatose was diluted to 5000 ppm and the fungicides were diluted to the concentrations listed in table 15, with distilled water, and 10 ml of the dilution was sprayed. Seven days after inoculation the disease severity of the test plants was observed and the effectiveness of test sample was judged.
The next experiment relates to Pythium aphanidermatum. Nature of the experiment: cucumber damping-off, pot test: soil drench of D-tagatose combined with fungicides. The settings on record: for pest or weed control at 50 ppm / pest or weed control at 250 ppm: Pythium aphanidermatum, in Cucumis sativus, soil, 336 h, read-out: Preventive value.
[4] abbreviates: Blumeria graminis, in Hordeum vulgare, 168 h, read-out: Preventive value.
The mark [5] stands for this setting: Pseudoperonospora cubensis, in Cucumis sativus, 168 h, read-out: Preventive value.
The mark [6] stands for this setting: Puccinia recondita, in Triticum aestivum, 168 h, read-out: Preventive value.
Where [7] appears, read: Podosphaera fuliginea, in Cucumis sativus, 168 h, read-out: Preventive value.
Setting [8] is: Phytophthora infestans, in Solanum lycopersicum, 168 h, read-out: Preventive value.
Setting [9] is: Plasmopara viticola, 168 h, read-out: Preventive value.
[10] abbreviates: Botrytis cinerea, in Solanum lycopersicum, 168 h, read-out: Preventive value.

Method for Botrytis cinerea: Test plants (tomato, variety: Ogata-fukujyu) were seeded and grown until the three leaf stage. D-Tagatose and fungicide were diluted to 10000 ppm and the concentrations liste in table 23, respectively, with distilled water and 10 ml of the dilution was sprayed on the plants. Three days after spraying the solution, condia suspension of Botrytis cinerea were inoculated by spraying on test plants and then put for 16 hours in an inoculation chamber (20° C. to 23° C.) to promote disease. Seven days after inoculation, the disease severity of the test plants was observed and the effectiveness of test sample was judged.
Method for Puccinia recondita: Test plants (variety: Nourin 61 gou) were sowed and grown until two leaves stage.
D-Tagatose and fungicide were diluted to 10000 ppm and the concentration listed in table 19, respectively, with distilled water, and 10 ml of the dilution was sprayed thoroughly on the plants. Three days after the spraying of the dilution, the plants were inoculated with Puccinia recondita containing 1×10^3/ml and then put for 16 hours in an inoculation chamber (20° C. to 23° C.) to promote disease. Seven days after inoculation the disease severity of the test plants was observed and the effectiveness of test sample was judged.
Method for Pythium aphanidermatum: Five seeds of test plants (cucumber, variety: Sagami hanpaku) were sowed in a pot (5×5 cm), which contains infested soil with Pythium aphanidermatum (mycelium 100 g/1 L soil) and was covered with soil. D-Tagatose was diluted to 5000 ppm and the fungicides were diluted to the concentrations listed in table 18, with distilled water. The pot was drenched with 10 ml of the dilution. After 2 weeks, the disease severity of the test plants was observed and the effectiveness of test sample was judged. Tests were carried out in triplicate using 5 plants for each test set and the preventive value was calculated from the germination rate.
Method for Sphaerotheca fuliginea: Test plants (cucumber, variety: Sagami hanpaku) were seeded and grown until the one true leaf stage. D-Tagatose and fungicide were diluted to 5000 ppm and the concentrations listed in table 20, respectively, with distilled water and 10 ml of the dilution was sprayed thoroughly on the plants. Three days after spraying, a condia suspension containing of Sphaerotheca fuliginea were inoculated by spraying on test plants.
Seven days after inoculation the disease severity of the test plants was observed and the effectiveness of test sample was judged.

Turning to `CO/C=C(/C(=O)OC)c1ccccc1Oc1cc(Oc2ccccc2C#N)ncn1` [azoxystrobin], the Preventive value in [1] (barley, compound alone, 0.4 ppm) is given as 50; in experiment [2] (alone, 10 ppm), 50; in the experiment with Pyricularia oryze (rice, compound alone, 10 ppm), 83; in the experiment on Puccinia recondita (wheat, compound alone, 2 ppm) it was 83; with Sphaerotheca fuliginea (cucumber, compound alone, 0.4 ppm), 67; in the experiment with Phytophthora infestans (alone, 10 ppm), 83. In addition, the Preventive value in the experiment with Plasmopara viticola (alone, 10 ppm) came out at 83; in the experiment on Botrytis cinerea (tomato, compound alone, 50 ppm), 50; in experiment [3] (alone, 10 ppm, curative) it was 50; with Pythium aphanidermatum (alone, 50 ppm, soil drench), 50.
On to `Cc1ccc(-c2c(Cl)nc(C#N)n2S(=O)(=O)N(C)C)cc1` [cyazofamid], for which the pest or weed control at 250 ppm (in [1] (setting [4]); in the experiment with Pyricularia oryze; in the experiment with Puccinia recondita (setting [6]); in the experiment with Sphaerotheca fuliginea (setting [7]); in the experiment with Botrytis cinerea (setting [10])) was 0% in each case. Besides, the pest or weed control at 0.4 ppm is 73% in [2] (setting [5]), 17% with Phytophthora infestans (setting [8]), 50% in the experiment with Plasmopara viticola (setting [9]) and 0% in experiment [3] (setting [5]). Moreover, the pest or weed control at 50 ppm with Pythium aphanidermatum is 83%.
As for `Cc1cc(C2CC2)nc(Nc2ccccc2)n1` [cyprodinil], the pest or weed control at 10 ppm in [1] (setting [4]) amounted to 17%; with Sphaerotheca fuliginea (setting [7]), 67%; in the experiment on Botrytis cinerea (setting [10]), 73%. The pest or weed control at 250 ppm is 0% in experiment [2] (setting [5]); 73% with Pyricularia oryze; 67% in the experiment on Puccinia recondita (setting [6]); 0% with Phytophthora infestans (setting [8]); 0% with Plasmopara viticola (setting [9]); 0% in experiment [3] (setting [5]). In the experiment on Pythium aphanidermatum, the pest or weed control at 250 ppm came out at 0%.
As for `N#Cc1c[nH]cc1-c1cccc2c1OC(F)(F)O2` [fludioxonil], the pest or weed control at 250 ppm turned out to be 73% in experiment [1] (setting [4]), 73% in the experiment with Sphaerotheca fuliginea (setting [7]) and 0% with Pythium aphanidermatum. For the same compound, the pest or weed control at 10 ppm in experiment [2] (setting [5]) was determined as 57%; in the experiment on Phytophthora infestans (setting [8]) it was 0%; in the experiment with Plasmopara viticola (setting [9]), 33%; in experiment [3] (setting [5]) it was 0%. For the same compound, the figures for the pest or weed control at 50 ppm with Pyricularia oryze and with Puccinia recondita (setting [6]) were 83% and 17%, respectively. Also, the pest or weed control at 2 ppm in the experiment on Botrytis cinerea (setting [10]) worked out at 67%.
In the case of `Cc1cc(O)no1` [hymexazol], the pest or weed control at 250 ppm is 0% in [1] (setting [4]); 0% in [2] (setting [5]); 33% in the experiment with Pyricularia oryze; 0% in the experiment on Puccinia recondita (setting [6]); 0% with Sphaerotheca fuliginea (setting [7]); 0% with Phytophthora infestans (setting [8]). The pest or weed control at 250 ppm (with Plasmopara viticola (setting [9]); with Botrytis cinerea (setting [10]); in experiment [3] (setting [5])) was 0% throughout. Further, the pest or weed control at 50 ppm in the experiment with Pythium aphanidermatum was determined as 67%.
For the compound `CC(C)CC(C)c1sccc1NC(=O)c1cn(C)nc1C(F)(F)F` (stereo not drawn) [penthiopyrad], the pest or weed control at 0.4 ppm stood at 67% in experiment [1] (setting [4]), 67% in the experiment on Puccinia recondita (setting [6]) and 50% in the experiment on Sphaerotheca fuliginea (setting [7]). The pest or weed control at 50 ppm in experiment [2] (setting [5]) was determined as 0%; in the experiment with Pyricularia oryze, 40%; in the experiment with Phytophthora infestans (setting [8]), 0%; in the experiment with Plasmopara viticola (setting [9]), 0%; in [3] (setting [5]), 0%. Besides, in the experiment on Botrytis cinerea (setting [10]), the pest or weed control at 10 ppm came out at 67%. Moreover, the pest or weed control at 250 ppm with Pythium aphanidermatum was 0%.
Consider `CCC(C)(NC(=O)c1cc(Cl)c(C)c(Cl)c1)C(=O)CCl` (stereo not drawn) [zoxamide], for which the pest or weed control at 2 ppm is 67% in experiment [2] (setting [5]), 50% in the experiment with Phytophthora infestans (setting [8]), 83% in the experiment with Plasmopara viticola (setting [9]) and 33% in experiment [3] (setting [5]). In addition, the pest or weed control at 250 ppm with Pyricularia oryze and with Pythium aphanidermatum was 0% each time.
